# Laboratory results published in patent US6579967B1, “Receptor-selective somatostatin analogs” (The Salk Institute for Biological Studies, priority 1999, dated 2003).
# “Also recorded” adds a separate entry of the source.
# Experiments:
# Format in all cases: binding
# [1] = target: T1, human SSTR5 (Homo sapiens, UniProt P35346); assay: Displacement of 125I-[Leu8,D-Trp22,Tyr25]-somatostatin-28 from cloned SSTR5 (receptor autoradiography on membrane pellets); conditions: 125I-labelled Tyr2 analog tested as radioligand on cloned receptor
# T1 construct: expressed in transfected cells; host or cells: CHO-K1 cells and CCL39 cells
# T1 sequence (P35346 whole entry): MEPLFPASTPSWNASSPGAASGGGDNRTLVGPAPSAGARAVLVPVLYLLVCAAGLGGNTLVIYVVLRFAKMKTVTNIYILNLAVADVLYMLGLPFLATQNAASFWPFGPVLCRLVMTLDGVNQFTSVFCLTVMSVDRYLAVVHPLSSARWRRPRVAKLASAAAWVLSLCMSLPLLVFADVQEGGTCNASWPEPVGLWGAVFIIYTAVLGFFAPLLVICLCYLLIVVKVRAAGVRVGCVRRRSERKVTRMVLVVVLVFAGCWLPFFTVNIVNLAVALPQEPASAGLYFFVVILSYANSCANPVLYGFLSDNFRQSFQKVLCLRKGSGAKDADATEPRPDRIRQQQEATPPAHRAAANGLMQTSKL
# [2] = target: T2, human SSTR3 (Homo sapiens, UniProt P32745); assay: Displacement of 125I-[Leu8,D-Trp22,Tyr25]-somatostatin-28 from cloned SSTR3 (receptor autoradiography on membrane pellets); conditions: 125I-labelled Tyr2 analog tested as radioligand on cloned receptor
# T2 construct: expressed in transfected cells; host or cells: CHO-K1 cells and CCL39 cells
# T2 sequence (P32745 whole entry): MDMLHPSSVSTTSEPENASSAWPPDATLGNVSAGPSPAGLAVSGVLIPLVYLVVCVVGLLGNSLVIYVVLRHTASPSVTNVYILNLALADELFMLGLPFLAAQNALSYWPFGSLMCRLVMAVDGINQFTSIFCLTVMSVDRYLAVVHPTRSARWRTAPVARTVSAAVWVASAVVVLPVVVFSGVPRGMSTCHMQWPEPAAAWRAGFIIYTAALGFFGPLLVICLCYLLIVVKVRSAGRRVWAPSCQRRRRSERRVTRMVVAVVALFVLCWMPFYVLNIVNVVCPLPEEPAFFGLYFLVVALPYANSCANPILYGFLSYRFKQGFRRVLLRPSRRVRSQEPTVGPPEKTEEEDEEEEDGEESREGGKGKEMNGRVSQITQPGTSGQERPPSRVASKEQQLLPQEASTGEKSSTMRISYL
# [3] = target: T3, human SSTR4 (Homo sapiens, UniProt P31391); assay: Displacement of 125I-[Leu8,D-Trp22,Tyr25]-somatostatin-28 from cloned SSTR4 (receptor autoradiography on membrane pellets); conditions: inhibition of 125I-[Leu8,D-Trp22,Tyr24]SRIF-28 binding, cloned receptor; read-out: IC50 (nM) mSSTR4
# T3 construct: expressed in transfected cells; host or cells: CHO-K1 cells and CCL39 cells
# T3 sequence (P31391 whole entry): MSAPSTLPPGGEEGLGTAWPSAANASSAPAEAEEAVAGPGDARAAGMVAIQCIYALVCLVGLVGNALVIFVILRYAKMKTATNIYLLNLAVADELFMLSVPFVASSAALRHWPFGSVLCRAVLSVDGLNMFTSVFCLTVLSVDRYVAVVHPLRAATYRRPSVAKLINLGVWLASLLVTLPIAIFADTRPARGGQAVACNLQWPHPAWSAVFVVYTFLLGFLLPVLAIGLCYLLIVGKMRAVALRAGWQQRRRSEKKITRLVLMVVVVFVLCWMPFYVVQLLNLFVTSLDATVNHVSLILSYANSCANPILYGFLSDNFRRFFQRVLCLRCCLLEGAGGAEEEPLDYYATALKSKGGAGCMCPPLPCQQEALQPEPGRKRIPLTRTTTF
# Experimental: (§1) Generally, recombinant cells expressing the receptor are washed and homogenized to prepare a crude protein homogenate in a suitable buffer, as known in the art. In a typical assay, an amount of protein from the cell homogenate is placed into a small volume of an appropriate assay buffer at an appropriate pH. Candidate substances, such as potential SRIF agonists and antagonists, are added to the admixture in convenient concentrations, and the interaction between the candidate substance and the receptor polypeptide is monitored.
# (§2) Receptor binding assays are performed on cloned SRIF receptors as generally set forth in Raynor et al. supra. Using such assays, one can generate KD values which are indicative of the concentration of a ligand necessary to occupy one-half (50%) of the binding sites on a selected amount of a receptor or the like, or alternatively, competitive assays can generate IC50 values which are indicative of the concentration of a competitive ligand necessary to displace a saturation concentration of a target ligand being measured from 50% of binding sites.
# (§3) In vitro Bioassay: The various somatostatin analogs are tested in vitro for their ability to bind to isolated cloned receptors expressed on CHO-K1 cells and CCL39 cells. CHO-K1 cells are grown in Ham's F-12 medium, and CCL39 cells are grown in Dulbecco's modified Eagle's medium/Ham's F-12(1:1) mix, supplemented with 10% fetal bovine serum, 100 U/ml penicillin and 100 μg/ml streptomycin, in humidified air containing 5% CO2 at 37° C.
# (§4) Cells are washed twice with and scraped into ice-cold 0.05 M Tris-HCl (pH 7.4), collected by centrifugation, and homogenized using a rotor/stator slash system in the same buffer. After centrifugation at 120 g for 5 min. at 4° C., the supernatant is collected and centrifuged again at 48,000 g for 30 min. at 4° C. The resulting pellet is resuspended in ice-cold Tris buffer, transferred into a microfuge tube, and centrifuged at 20,000 g for 15 min. at 4° C. After withdrawal of the supernatant, the membrane pellet is stored at −80° C.
# (§5) Receptor autoradiography is performed on 20 μm thick cryostat sections of the membrane pellets, mounted on microscope slides, and then stored at −20° C. […] […] Unlabeled somatostatin-28 is run in parallel using the same increasing concentrations, as a control. IC50 values are calculated after quantification of the data using a computer-assisted image processing system as known in this art.
# [4] = target: T2, human SSTR3; assay: Displacement of 125I-[Leu8,D-Trp22,Tyr25]-somatostatin-28 from cloned SSTR3 (receptor autoradiography on membrane pellets)
# Experimental: as §1
# as §2, with “sites. The peptide des-AA^1,2,4,5,12,13-[D-Agl^8(Me,2-naphthoyl)]SRIF inhibits the binding to SSTR3 of an iodinated SRIF-28 ligand that has strong affinity for all five receptors.” for “sites.”
# as §3, §4
# (§6) Receptor autoradiography is performed on 20 μm thick cryostat sections of the membrane pellets, mounted on microscope slides, and then stored at −20° C. For each of the tested compounds, complete displacement experiments are performed with the universal somatostatin ligand radioligand ^125I-[Leu^8,D-Trp^22,Tyr^25]-somatostatin-28 that binds with strong affinity to all five receptors. Increasing concentrations of the unlabeled peptide are used ranging from 0.1-1000 nM. Unlabeled somatostatin-28 is run in parallel using the same increasing concentrations, as a control. IC50 values are calculated after quantification of the data using a computer-assisted image processing system as known in this art.
# (§7) The potencies of certain SRIF analogs to inhibit radioligand binding of ^125I-[Leu^8,D-Trp^22,[…]]SRIF-28 to the various cloned SRIF receptors are shown in the following table wherein the IC50 values are given in nanomolar concentration.
# [5] = target: T1, human SSTR5; assay: Displacement of 125I-[Leu8,D-Trp22,Tyr25]-somatostatin-28 from cloned SSTR5 (receptor autoradiography on membrane pellets); conditions: inhibition of 125I-[Leu8,D-Trp22,Tyr24]SRIF-28 binding, cloned receptor; read-out: IC50 (nM) mSSTR5
# Experimental: as §1
# as §2, with “sites. The peptide des-AA^1,2,4,5,12,13-[D-Agl^8(Me,2-naphthoyl)]SRIF inhibits the binding to SSTR3 of an iodinated SRIF-28 ligand that has strong affinity for all five receptors.” for “sites.”
# as §3, §4
# as §6, with “Increasing concentrations of the unlabeled peptide are used ranging from 0.1-1000 nM.” left out
# as §7
# [6] = target: T4, human SSTR2 (Homo sapiens, UniProt P30874); assay: Displacement of 125I-[Leu8,D-Trp22,Tyr25]-somatostatin-28 from cloned SSTR2 (receptor autoradiography on membrane pellets); conditions: inhibition of 125I-[Leu8,D-Trp22,Tyr24]SRIF-28 binding, cloned receptor; read-out: IC50 (nM) mSSTR2
# T4 construct: expressed in transfected cells; host or cells: CHO-K1 cells and CCL39 cells
# T4 sequence (P30874 whole entry): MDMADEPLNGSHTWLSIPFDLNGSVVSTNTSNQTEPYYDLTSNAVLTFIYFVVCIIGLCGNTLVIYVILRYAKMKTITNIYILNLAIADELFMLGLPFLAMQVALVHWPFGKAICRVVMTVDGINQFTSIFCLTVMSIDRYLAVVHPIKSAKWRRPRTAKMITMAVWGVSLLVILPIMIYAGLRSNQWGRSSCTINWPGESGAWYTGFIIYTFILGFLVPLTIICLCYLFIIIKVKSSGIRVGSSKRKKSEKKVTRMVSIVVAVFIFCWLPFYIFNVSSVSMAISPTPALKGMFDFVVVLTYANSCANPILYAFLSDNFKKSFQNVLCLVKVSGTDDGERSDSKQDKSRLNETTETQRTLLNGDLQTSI
# Experimental: as §1, §2, §3, §4, §5
# [7] = target: T5, human SSTR1 (Homo sapiens, UniProt P30872); assay: Displacement of 125I-[Leu8,D-Trp22,Tyr25]-somatostatin-28 from cloned SSTR1 (receptor autoradiography on membrane pellets); conditions: inhibition of 125I-[Leu8,D-Trp22,Tyr24]SRIF-28 binding, cloned receptor; read-out: IC50 (nM) mSSTR1
# T5 construct: expressed in transfected cells; host or cells: CHO-K1 cells and CCL39 cells
# T5 sequence (P30872 whole entry): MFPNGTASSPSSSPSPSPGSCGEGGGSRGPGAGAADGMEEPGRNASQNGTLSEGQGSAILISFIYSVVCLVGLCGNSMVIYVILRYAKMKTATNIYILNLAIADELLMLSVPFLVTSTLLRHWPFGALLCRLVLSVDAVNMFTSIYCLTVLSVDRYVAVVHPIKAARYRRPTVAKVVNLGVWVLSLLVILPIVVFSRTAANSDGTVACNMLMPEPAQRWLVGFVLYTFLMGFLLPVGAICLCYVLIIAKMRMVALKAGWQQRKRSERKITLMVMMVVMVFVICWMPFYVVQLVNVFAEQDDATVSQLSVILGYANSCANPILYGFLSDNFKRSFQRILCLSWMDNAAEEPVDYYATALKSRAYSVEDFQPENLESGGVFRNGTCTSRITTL
# Experimental: as §1, §2, §3, §4, §5
Compound,binding of the radioiodinated analog to SSTR5 [1],binding of the radioiodinated analog to SSTR3 [2],IC50 [3] [nM],relative potency at SSTR3 by comparison to SRIF-28 ([4]; binding affinity relative to SRIF-28 (=1)),"IC50 ([4]; inhibition of 125I-[Leu8,D-Trp22,Tyr24]SRIF-28 binding, cloned receptor, read-out: IC50 (nM) mSSTR3) [nM]","binding strength and selectivity for SSTR3, in words ([4]; qualitative statement, listed as Peptide 2F)",IC50 [5] [nM],IC50 [6] [nM],IC50 [7] [nM]
"(cyclo)H-Tyr-Cys-Phe-Phe-D-Agl(Me,2Np)-Lys-Thr-Phe-Cys-OH [Peptide No. 4]",No specific binding,continues to bind strongly to SSTR3; also recorded: effectively binds to SSTR3 to about the same extent as Peptide No. 2B,,,,,,,
"C[C@@H](O)[C@@H]1NC(=O)[C@H](CCCCN)NC(=O)[C@@H](N(C)C(=O)c2ccc3ccccc3c2)NC(=O)[C@H](Cc2ccc(O)cc2)NC(=O)[C@H](Cc2ccccc2)NC(=O)[C@H](NC(N)=O)CSSC[C@@H](C(=O)O)NC(=O)[C@H](Cc2ccccc2)NC1=O [Peptide No. 2F, (cyclo 3-14)Cbm-D-Cys-Phe-Tyr-D-Agl(Me,2Np)-Lys-Thr-Phe-Cys-OH]",,,> 10000,about 1.4,6.7 ± 2.6,bind strongly and selectively to SSTR3; also recorded: binding strength essentially equal to that of SRIF-28,> 10000,> 10000,> 10000
